The values below come from patent US12404267B2, “Solid state forms of n-[2-(2-{4-[2-(6,7-dimethoxy-3,4-dihydro-2(1H)-isoquinolinyl)ethyl]phenyl}-2H-tetrazol-5-yl)-4,5-dimethoxyphenyl]-4-oxo-4H-chromene-2-carboxamide and of its mesylate salt” (ASSIA CHEMICAL INDUSTRIES LTD., priority 2019, dated 2025).

The data set can be described thus: Solubility of solid state forms of Encequidar mesylate. The note with it: compared with amorphous Encequidar mesylate; no medium or method printed. Type of data set: physicochemical.

Molecules are shown by their SMILES. Counter-ions that a name gives are not always drawn.

On to `COc1cc2c(cc1OC)CN(CCc1ccc(-n3nnc(-c4cc(OC)c(OC)cc4NC(=O)c4cc(=O)c5ccccc5o4)n3)cc1)CC2` [Form B of Encequidar mesylate], for which the solubility entry is given as “surprisingly greater than the solubility of amorphous Encequidar mesylate”.
